Results: patent publication US10053457B2, “Hydroxyalkyl-piperazine derivatives as CXCR3 receptor modulators” (IDORSIA PHARMACEUTICALS LTD, priority 2015, dated 2018)

Legend:
Type in all cases: cell-based
hERG K channel = hERG K channel (Homo sapiens (Human), UniProt Q12809); experiment: hERG Q-Patch assay; conditions: CHO cells expressing hERG, K+ tail current 3 min after application, mean of two or three experiments
Description: Compounds are evaluated for block of the hERG K channel using CHO cells stably expressing the hERG gene (accession number U04270, bSys, Witterswil, Switzerland) and the QPatch robotic platform (Sophion, Ballerup, Denmark) in single-cell mode at room temperature. Cells are grown in culture flasks at 37° C. in 5% CO2, in culture medium (Ham's F-12 Nutrient Mixture, Invitrogen 21765-029) supplemented with 9% (v/v) fetal calf serum, 0.9% Penicillin/Streptomycin (10,000 U/mL, Invitrogen 15140148), 100 μg/mL Hygromycin B (Invitrogen 10687010). When the cells are ˜80% confluent (every 2-3 days), they are either split for further culture or used for electrophysiology. For further culture, cells are detached with 0.25% Trypsin EDTA solution (Invitrogen 25200-056) and a fraction of the cells (10-30%) is reseeded in culture medium. For electrophysiology, on the experimental day, cells are detached with 0.25% Trypsin EDTA solution and all cells are suspended in suspension medium (293 SFM II, Invitrogen 11686-029) supplemented with 20 mM HEPES and 0.04 mg/mL Trypsin inhibitor. Cells are kept in suspension medium at 32-35° C. in the QPatch robot until use, at which time aliquots are transferred to the extracellular solution (in mM: NaCl 150; KCl 4; CaCl2 1.2; MgCl2 1; HEPES 10; pH 7.4 with NaOH) containing 0.3% v/v DMSO and applied to the test plates. K^+ currents are measured with the patch-voltage-clamp technique in the whole-cell configuration with the internal solution (in mM: KCl, 140; NaCl, 10; MgCl2, 1; HEPES, 10: EGTA, 5; pH=7.2 with KOH). Currents are low-pass filtered using the internal Bessel filter of the QPatch robot with a cut-off frequency of 2 kHz and are digitized at 10 kHz. K^+ tail currents are produced from a holding voltage of −80 mV by a 500-ms depolarization to +20 mV followed by a 500-ms repolarization to −40 mV; tail current amplitudes are measured at the end of the repolarization to −40 mV. The pulse pattern is repeated every 10 sec during the experiment, baseline K^+ current is measured after 3 min in extracellular solution, test-solution containing compound is then applied, and K^+ current in presence of compound is measured 3 minutes after application to the cells. The respective test-solution is prepared by (1) dissolving the test-compound in pure DMSO, (2) diluting this DMSO solution in extracellular solution, and (3) adding further DMSO, such that the final test-solution has a concentration of either 300 nM or 3000 nM of the test-compound and contains 0.3% v/v DMSO. Compound effects are quantified as % block by dividing the current in presence of compound by the baseline current; two or three experiments are performed for each compound and the final value represents the mean of the results of each experiment.

human CXCR3A = human CXCR3A (Homo sapiens (Human), UniProt P49682); experiment: FLIPR assay (CXCL10-induced calcium signal); conditions: CHO-K1 cells expressing human CXCR3A coupled to Galpha(16); CXCL10 agonist 20 nM; mean values
Source text: (§1) In the case where IC50 values have been determined several times for the same compound, mean values are given.

CXCR3 = CXCR3 (Homo sapiens (Human), UniProt P49682); experiment: Receptor internalization assay in human whole blood (CXCR3 surface expression on CD4 positive cells, CXCL10); conditions: final CXCL10 9 nM, 30 min at 37° C., mean values
Description: Diluted compounds are then mixed with an equal volume of CXCL10 (Peprotech) diluted in PBS. Anticoagulated venous human whole blood is added to the mixture, which is then incubated in a CO2 incubator at 37° C. to allow for ligand mediated receptor internalization (final CXCL10 concentration is 9 nM). After 30 min, the blood is mixed with fluorescently labeled CXCR3 and CD4 specific antibodies (Becton Dickinson) and incubated on ice for 10 minutes. Samples are then mixed with BD FACS Lysing Solution (Becton Dickinson) in order to eliminate red blood cells. After washing the cells with PBS containing 0.5% BSA, the samples are then analyzed in a flow cytometer (FACS Canto II, Becton Dickinson). For data analysis using FACSDiva software (Becton Dickinson), the mean fluorescence corresponding to CXCR3 cell surface expression was determined on CD4 positive cells. The program GraphPad Prism or similar software is used to fit the data to a single site dose response curve and to calculate IC50 values.
as §1

Chain of human CXCR3A (P49682 whole entry): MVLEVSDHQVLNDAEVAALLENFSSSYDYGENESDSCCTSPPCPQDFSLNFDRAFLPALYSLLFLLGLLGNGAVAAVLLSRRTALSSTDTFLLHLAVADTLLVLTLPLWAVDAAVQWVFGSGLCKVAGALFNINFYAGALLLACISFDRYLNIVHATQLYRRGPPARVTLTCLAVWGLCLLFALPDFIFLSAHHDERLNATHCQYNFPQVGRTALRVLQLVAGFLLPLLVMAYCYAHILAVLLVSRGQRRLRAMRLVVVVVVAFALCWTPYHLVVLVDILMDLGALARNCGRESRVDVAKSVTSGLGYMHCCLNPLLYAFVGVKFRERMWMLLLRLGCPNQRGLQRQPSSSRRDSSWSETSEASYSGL
Chain of CXCR3 (P49682 whole entry): as above
Chain of hERG K channel (Q12809 whole entry): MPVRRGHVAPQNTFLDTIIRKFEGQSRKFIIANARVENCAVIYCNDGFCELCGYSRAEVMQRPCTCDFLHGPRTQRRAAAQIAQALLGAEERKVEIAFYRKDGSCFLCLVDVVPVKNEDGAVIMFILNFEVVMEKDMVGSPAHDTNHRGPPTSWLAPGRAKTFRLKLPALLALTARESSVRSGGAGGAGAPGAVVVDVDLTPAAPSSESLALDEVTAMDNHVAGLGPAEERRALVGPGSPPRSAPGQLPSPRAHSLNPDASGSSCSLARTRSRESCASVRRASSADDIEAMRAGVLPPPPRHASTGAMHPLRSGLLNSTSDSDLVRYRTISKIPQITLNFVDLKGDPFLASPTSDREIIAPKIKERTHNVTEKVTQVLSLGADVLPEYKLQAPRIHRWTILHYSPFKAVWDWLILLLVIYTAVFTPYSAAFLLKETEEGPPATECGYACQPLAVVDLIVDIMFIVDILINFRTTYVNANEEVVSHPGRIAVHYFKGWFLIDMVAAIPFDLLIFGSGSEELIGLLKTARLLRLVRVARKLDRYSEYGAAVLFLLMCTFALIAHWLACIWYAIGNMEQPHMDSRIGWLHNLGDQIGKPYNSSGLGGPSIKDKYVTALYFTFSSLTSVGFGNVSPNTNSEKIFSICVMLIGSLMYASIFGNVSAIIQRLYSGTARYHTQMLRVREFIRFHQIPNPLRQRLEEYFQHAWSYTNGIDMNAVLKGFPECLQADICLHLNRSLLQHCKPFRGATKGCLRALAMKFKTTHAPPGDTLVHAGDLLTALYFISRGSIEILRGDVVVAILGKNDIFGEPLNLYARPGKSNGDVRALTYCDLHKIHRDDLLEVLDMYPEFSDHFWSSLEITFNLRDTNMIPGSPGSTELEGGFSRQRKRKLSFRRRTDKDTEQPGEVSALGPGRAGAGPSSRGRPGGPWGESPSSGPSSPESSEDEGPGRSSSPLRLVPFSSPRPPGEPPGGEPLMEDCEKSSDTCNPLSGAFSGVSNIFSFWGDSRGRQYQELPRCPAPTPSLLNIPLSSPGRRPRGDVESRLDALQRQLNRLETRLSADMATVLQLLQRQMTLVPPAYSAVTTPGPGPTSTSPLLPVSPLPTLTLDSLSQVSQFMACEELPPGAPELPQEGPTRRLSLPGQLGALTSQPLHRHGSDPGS

Structure (SMILES) | IC50 (human CXCR3A) | IC50 (CXCR3) | % block (hERG K channel; concentration 300 nM) | % block (hERG K channel; concentration 3000 nM)
Cc1nc(C)n(CC(=O)N2CCN(c3sc(C(F)(F)F)nc3-c3cnc(C(F)(F)F)nc3)C[C@@H]2CO)n1 [Example 12, 2-(3,5-Dimethyl-[1,2,4]triazol-1-yl)-1-{(R)-2-hydroxymethyl-4-[2-trifluoromethyl-4-(2-trifluoromethyl-pyrimidin-5-yl)-thiazol-5-yl]-piperazin-1-yl}-ethanone] | 6.9 nM | 324 nM | 1% | 3%
O=C(Cn1ccc2cc(F)ccc21)N1CCN(c2sc(C(F)(F)F)nc2-c2cnc(C(F)(F)F)nc2)C[C@@H]1CO [Example 14, 2-(5-Fluoro-indol-1-yl)-1-{(R)-2-hydroxymethyl-4-[2-trifluoromethyl-4-(2-trifluoromethyl-pyrimidin-5-yl)-thiazol-5-yl]-piperazin-1-yl}-ethanone] | 0.7 nM | 199 nM | 14% | 62%
COc1ccc2c(ccn2CC(=O)N2CCN(c3sc(C(F)(F)F)nc3-c3cnc(C(F)(F)F)nc3)C[C@@H]2CO)c1 [Example 15, 1-{(R)-2-Hydroxymethyl-4-[2-trifluoromethyl-4-(2-trifluoromethyl-pyrimidin-5-yl)-thiazol-5-yl]-piperazin-1-yl}-2-(5-methoxy-indol-1-yl)-ethanone] | 2.3 nM | 1660 nM | 8% | 35%
Cc1ncn(CC(=O)N2CCN(c3sc(C(F)(F)F)nc3-c3cnc(C(F)(F)F)nc3)C[C@@H]2CO)n1 [Example 16, 1-{(R)-2-Hydroxymethyl-4-[2-trifluoromethyl-4-(2-trifluoromethyl-pyrimidin-5-yl)-thiazol-5-yl]-piperazin-1-yl}-2-(3-methyl-[1,2,4]triazol-1-yl)-ethanone] | 3.9 nM | 542 nM | 1% | 1%
COCc1ncn(CC(=O)N2CCN(c3sc(C(F)(F)F)nc3-c3cnc(C(F)(F)F)nc3)C[C@@H]2CO)n1 [Example 17, 1-{(R)-2-Hydroxymethyl-4-[2-trifluoromethyl-4-(2-trifluoromethyl-pyrimidin-5-yl)-thiazol-5-yl]-piperazin-1-yl}-2-(3-methoxymethyl-[1,2,4]triazol-1-yl)-ethanone] | 5.9 nM | 1290 nM | 2% | 6%
CC(=O)c1ncn(CC(=O)N2CCN(c3sc(C(F)(F)F)nc3-c3cnc(C(F)(F)F)nc3)C[C@@H]2CO)n1 [Example 20, 2-(3-Acetyl-[1,2,4]triazol-1-yl)-1-{(R)-2-hydroxymethyl-4-[2-trifluoromethyl-4-(2-trifluoromethyl-pyrimidin-5-yl)-thiazol-5-yl]-piperazin-1-yl}-ethanone] | 6.4 nM | 2380 nM | 2% | 3%
Cc1ccn(CC(=O)N2CCN(c3sc(C(F)(F)F)nc3-c3cnc(C(F)(F)F)nc3)C[C@@H]2CO)n1 [Example 22, 1-{(R)-2-Hydroxymethyl-4-[2-trifluoromethyl-4-(2-trifluoromethyl-pyrimidin-5-yl)-thiazol-5-yl]-piperazin-1-yl}-2-(3-methyl-pyrazol-1-yl)-ethanone] | 1.6 nM | 105 nM | 4% | 15%
Cc1nc(C)n(CC(=O)N2CCN(c3sc(C(F)(F)F)nc3-c3cnc(C(F)(F)F)nc3)C[C@H]2CCO)n1 [Example 27, 2-(3,5-Dimethyl-[1,2,4]triazol-1-yl)-1-{(R)-2-(2-hydroxy-ethyl)-4-[2-trifluoromethyl-4-(2-trifluoromethyl-pyrimidin-5-yl)-thiazol-5-yl]-piperazin-1-yl}-ethanone] | 5.2 nM | 235 nM | 1% | 4%
O=C(Cn1cnc(C(F)(F)F)n1)N1CCN(c2sc(C(F)(F)F)nc2-c2cnc(C(F)(F)F)nc2)C[C@H]1CCO [Example 28, 1-{(R)-2-(2-Hydroxy-ethyl)-4-[2-trifluoromethyl-4-(2-trifluoromethyl-pyrimidin-5-yl)-thiazol-5-yl]-piperazin-1-yl}-2-(3-trifluoromethyl-[1,2,4]triazol-1-yl)-ethanone] | 1.1 nM | 214 nM | 6% | 40%
CC(C)(C)c1ncn(CC(=O)N2CCN(c3sc(C(F)(F)F)nc3-c3cnc(C(F)(F)F)nc3)C[C@H]2CCO)n1 [Example 30, 2-(3-tert-Butyl-[1,2,4]triazol-1-yl)-1-{(R)-2-(2-hydroxy-ethyl)-4-[2-trifluoromethyl-4-(2-trifluoromethyl-pyrimidin-5-yl)-thiazol-5-yl]-piperazin-1-yl}-ethanone] | 4.4 nM | 170 nM | −2% | 25%

The remaining compounds from weak to strong by IC50 (human CXCR3A), led by results:

IC50 (human CXCR3A) | IC50 (CXCR3) | Structure (SMILES) | % block (hERG K channel; concentration 300 nM) | % block (hERG K channel; concentration 3000 nM)
510 nM | 6500 nM | Cc1nc(-c2ncn(CC(=O)N3CCN(c4sc(C(F)(F)F)nc4-c4cnc(C(F)(F)F)nc4)C[C@@H]3CO)n2)no1 [Example 18, 1-{(R)-2-Hydroxymethyl-4-[2-trifluoromethyl-4-(2-trifluoromethyl-pyrimidin-5-yl)-thiazol-5-yl]-piperazin-1-yl}-2-[3-(5-methyl-[1,2,4]oxadiazol-3-yl)-[1,2,4]triazol-1-yl]-ethanone] | 6% | 13%
42 nM | 3310 nM | O=C(Cn1cnc(-c2ccccc2)n1)N1CCN(c2sc(C(F)(F)F)nc2-c2cnc(C(F)(F)F)nc2)C[C@@H]1CO [Example 19, 1-{(R)-2-Hydroxymethyl-4-[2-trifluoromethyl-4-(2-trifluoromethyl-pyrimidin-5-yl)-thiazol-5-yl]-piperazin-1-yl}-2-(3-phenyl-[1,2,4]triazol-1-yl)-ethanone] | 6% | 41%
5.5 nM | 157 nM | O=C(Cn1cnc(C2CCC2)n1)N1CCN(c2sc(C(F)(F)F)nc2-c2cnc(C(F)(F)F)nc2)C[C@H]1CCO [Example 29, 2-(3-Cyclobutyl-[1,2,4]triazol-1-yl)-1-{(R)-2-(2-hydroxy-ethyl)-4-[2-trifluoromethyl-4-(2-trifluoromethyl-pyrimidin-5-yl)-thiazol-5-yl]-piperazin-1-yl}-ethanone] | 4% | 38%
3.4 nM | 339 nM | CC(C)c1ncn(CC(=O)N2CCN(c3sc(C(F)(F)F)nc3-c3cnc(C(F)(F)F)nc3)C[C@@H]2CO)n1 [Example 11, 1-{(R)-2-Hydroxymethyl-4-[2-trifluoromethyl-4-(2-trifluoromethyl-pyrimidin-5-yl)-thiazol-5-yl]-piperazin-1-yl}-2-(3-isopropyl-[1,2,4]triazol-1-yl)-ethanone] | 5% | 11%
1.2 nM | 1050 nM | O=C(Cn1cnc2ccccc21)N1CCN(c2sc(C(F)(F)F)nc2-c2cnc(C(F)(F)F)nc2)C[C@@H]1CO [Example 13, 2-Benzoimidazol-1-yl-1-{(R)-2-hydroxymethyl-4-[2-trifluoromethyl-4-(2-trifluoromethyl-pyrimidin-5-yl)-thiazol-5-yl]-piperazin-1-yl}-ethanone] | 5% | 17%
